Measured values: US20250290915A1, “METHOD FOR PREDICTING RESPONSIVENESS TO THERAPY” (CANCERTAIN LIMITED, priority 2022, published 2025)

Legend:
Format in all cases: cell-based, human
[1] = tested on: Circulating tumour cells (CTCs) from a patient with GI cancer (Cholangio Carcinoma, stage 4); test: Drug response score assay on blood sample, Example 9; set-up: key to Drug response score from blood sample, conc. 1 / Drug response score from blood sample, conc. 2 / Drug response score from blood sample, conc. 3 / Drug response score from blood sample, conc. 4: normalized drug response metric per Gupta et al. 2020; details: for effectiveness on Circulating Tumour Cells under laboratory conditions: GI cancer (Cholangio Carcinoma) blood sample; for Drug response score from blood sample, conc. 1: conc. 1 of each drug as in Table 27; for Drug response score from blood sample, conc. 1 / Drug response score from blood sample, conc. 2 / Drug response score from blood sample, conc. 3 / Drug response score from blood sample, conc. 4: t96h; for Drug response score from blood sample, conc. 2: conc. 2 of each drug as in Table 27; for Drug response score from blood sample, conc. 3: conc. 3 of each drug as in Table 27; for Drug response score from blood sample, conc. 4: conc. 4 of each drug as in Table 27; for Drug sensitivity as calculated by the assay, Blood: interpretation based on Drug Response Scores; for Drug response score from blood sample, conc. 1 / Drug response score from blood sample, conc. 2 / Drug response score from blood sample, conc. 3 / Drug response score from blood sample, conc. 4 / Drug sensitivity as calculated by the assay, Blood: blood sample
Outline: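 CD45+ immune cells and EpCAM+ CTCs magnetically isolated from blood of a stage 4 cholangiocarcinoma patient previously treated with cisplatin and gemcitabine, then plated on PCL electrospun-fibre scaffold. Agents dosed at t0 and re-dosed at 48 h, 37° C, 5% CO2; viability and cytotoxicity read by RealTime-Glo MT and CellTox Green. Normalized drug response score computed from t0 and t96h readouts against blank-well controls.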

[2] = tested on: Circulating Tumour Cells (CTCs) from a patient with rectal cancer (anorectal carcinoma with secondary lung cancer); test: Drug response score assay on CTCs (with CD45+ cells for immunotherapy) from blood, Example 3; details: for Drug response score, conc. 1: conc. 1: Pembro 20 μg/ml, Nivo 20 μg/ml (CTCs + CD45+ cells), Lenva 50 ng/ml, Regor 60 μg/ml (CTCs); for Drug response score, conc. 1 / Drug response score, conc. 2 / Drug response score, conc. 3 / Drug response score, conc. 4: t96h; for Drug response score, conc. 2: conc. 2: Pembro 40 μg/ml, Nivo 40 μg/ml (CTCs + CD45+ cells), Lenva 100 ng/ml, Regor 80 μg/ml (CTCs); for Drug response score, conc. 3: conc. 3: Pembro 100 μg/ml, Nivo 80 μg/ml (CTCs + CD45+ cells), Lenva 200 ng/ml, Regor 120 μg/ml (CTCs); for Drug response score, conc. 4: conc. 4: Pembro 160 μg/ml, Nivo 160 μg/ml (CTCs + CD45+ cells), Lenva 400 ng/ml, Regor 160 μg/ml (CTCs); for effectiveness on Circulating Tumour Cells under laboratory conditions / Drug sensitivity as calculated by the assay (interpretation of Drug Response Scores): rectal cancer CTCs; for Drug sensitivity as calculated by the assay (interpretation of Drug Response Scores): Table 11
Procedure: CD45^+ cells and circulating tumour cells (CTCs) were isolated from a blood sample provided by each subject.
CD45 separation was performed by adding human CD45 microbeads (50 μl/ml blood), incubating for 15 minutes at 4° C. and then processing using an AutoMACS machine. This separates the blood sample into CD45^+ and CD45^−cells in 2 separate falcons. The falcon tubes are then centrifuged at 1200 rpm for 5 minutes.
The supernatant was removed from the CD45^+falcon tube, and the cells resuspended in DMEM with 2 μl Cell Tox, 2 μl MT and 2 μl MT. 20 μl of the resuspended CD45^+ cells was then plated in each well which will contain an immunotherapy treatment.
The supernatant was removed from the CD45^−falcon tube, and the CD45^−cells contacted with 100 μl of FcR block and 100 μl of CD326 (EpCAM) MicroBeads, followed by incubation at […] 4° C. for 30 minutes. The CD45^−cells were then processed using an AutoMACS machine to separate the EpCAM positive and negative cells into 2 separate falcon tubes. The EpCAM-cells were discarded. The supernatant was removed from the EpCAM^+ cells, and the cells resuspended in DMEM with 2 μl Cell Tox, 2 μl MT and 2 μl MT. 20 μl of the resuspended pellet was then added to all sample wells excluding a blank. After all wells are added to, a cell count was conducted on the […] to determine the number of circulating tumour cells (CTCs).
The different cell types were each divided equally into populations, depending on the number of drugs/concentrations to be tested and plated on a cell-culture plate pre-coated with a scaffold of polycaprolactone (PCL) electrospun fibres and incubated at 37° C., 5% CO2, for 5 to (typically 10) minutes to facilitate cell attachment. After attachment, an initial imaging step was carried out using the RealTime-Glo™ MT assay from Promega (Catalogue No. G9711)) and the CellTox™ Green Cytotoxicity Assay (Promega, Catalogue No. G8741), carried out according to manufacturer's instructions. Following this initial imagining, the immunotherapeutic and/or chemotherapeutic agents were added to the cell populations as indicated below. After 10 minutes, the imagining step was repeated. The cell populations were then incubated at 37° C., 5% CO2 for 48 hours. The imaging step was then repeated. The cell populations were then re-dosed with the same immunotherapeutic and/or chemotherapeutic agents as indicated below, and incubated at 37° C., 5% CO2 for a further 48 hours. After this second 48 hour incubation, the imagining step was repeated for a final time.
At the end of this culture period, dose response scores were calculated using a normalized drug response metric as described in Gupta et al. (Communications Biology volume 3, Article number: 42 (2020), https://doi.org/10.1038/s42003-020-0765-z). The start readout for a given immunotherapeutic or chemotherapeutic agent at a given concentration was the to readout for said immunotherapeutic or chemotherapeutic agent at a specified concentration. The end readout for a given immunotherapeutic or chemotherapeutic agent at a given concentration was the final timepoint reading (t96h) for said immunotherapeutic or chemotherapeutic agent at a specified concentration.
The positive control start readout for a given drug/concentration was the to readout for the corresponding drug at a specified concentration. The positive control end readout for the corresponding drug at a specified concentration was the final timepoint reading (t96h) for the corresponding blank well.
The negative control start and end readouts for a given immunotherapeutic or chemotherapeutic agent at a given concentration were the to and final timepoint reading (t96h) respectively for blank cell or blank immuno cell well respectively.
The sensitivity or resistance of a subject's cancer to a given immunotherapeutic or chemotherapeutic agent was determined based on the calculated drug response score as shown in Table 2. […]

[3] = tested on: Circulating Tumour Cells (CTCs) from a patient with renal cancer; test: Drug response score assay on CTCs (with CD45+ cells for immunotherapy) from blood, Example 7; set-up: key to Drug response score, conc. 1 / Drug response score, conc. 2 / Drug response score, conc. 3 / Drug response score, conc. 4: normalized drug response metric per Gupta et al. 2020
Outline: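 CD45+ cells and EpCAM+ CTCs isolated from blood by magnetic beads, plated on PCL electrospun fibre scaffold with RealTime-Glo MT and CellTox Green reagents. Agents added, re-dosed at 48 h, 96 h total at 37° C., 5% CO2; imaging at t0 and 96 h gives normalized drug response score versus blank wells.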

Molecule: COc1cc2nccc(Oc3ccc(NC(=O)NC4CC4)c(Cl)c3)c2cc1C(N)=O [Lenvatinib]
- effectiveness on Circulating Tumour Cells under laboratory conditions [1]: S+
- Drug response score from blood sample, conc. 1 [1]: 0.2851
- Drug response score from blood sample, conc. 2 [1]: 0.3155
- Drug response score from blood sample, conc. 3 [1]: 0.4097
- Drug response score from blood sample, conc. 4 [1]: 0.6214
- Drug sensitivity as calculated by the assay, Blood [1]: S+
- Drug response score, conc. 1 [2]: 2.0109
- Drug response score, conc. 2 [2]: 1.6409
- Drug response score, conc. 3 [2]: 0.8991
- Drug response score, conc. 4 [2]: 2.0235
- effectiveness on Circulating Tumour Cells under laboratory conditions [2]: not effective
- Drug sensitivity as calculated by the assay (interpretation of Drug Response Scores) [2]: Resistant

Molecule: Nivolumab
- Drug response score from blood sample, conc. 1 [1]: 1
- Drug response score from blood sample, conc. 2 [1]: 0.2783
- Drug response score from blood sample, conc. 3 [1]: 1.061
- Drug response score from blood sample, conc. 4 [1]: 1.046
- Drug response score, conc. 1 [2]: 0.4990
- Drug response score, conc. 2 [2]: 0.6429
- Drug response score, conc. 3 [2]: 0.6261
- Drug response score, conc. 4 [2]: 1.0807
- effectiveness on Circulating Tumour Cells under laboratory conditions [2]: Sensitive S+
- Drug sensitivity as calculated by the assay (interpretation of Drug Response Scores) [2]: Sensitive (S+)

Molecule: Pembrolizumab
- effectiveness on Circulating Tumour Cells under laboratory conditions [1]: S+
- Drug response score from blood sample, conc. 1 [1]: 0.00068
- Drug response score from blood sample, conc. 2 [1]: 0.1572
- Drug response score from blood sample, conc. 3 [1]: 1.041
- Drug response score from blood sample, conc. 4 [1]: 0.6989
- Drug sensitivity as calculated by the assay, Blood [1]: S+
- Drug response score, conc. 1 ([3]; conc. 1: Pembr 20 μg/ml (CTCs + CD45+ cells), Docetax 0.02 μg/ml, Gemcit 2 μg/ml, Topo 5 μg/ml, Etop 1 μg/ml, Eribul 5 μg/ml (CTCs), t96h): −0.0194
- Drug response score, conc. 2 ([3]; conc. 2: Pembr 40 μg/ml (CTCs + CD45+ cells), Docetax 0.2 μg/ml, Gemcit 10 μg/ml, Topo 10 μg/ml, Etop 4 μg/ml, Eribul 10 μg/ml (CTCs), t96h): 0.1577
- Drug response score, conc. 3 ([3]; conc. 3: Pembr 100 μg/ml (CTCs + CD45+ cells), Docetax 2 μg/ml, Gemcit 20 μg/ml, Topo 50 μg/ml, Etop 20 μg/ml, Eribul 20 μg/ml (CTCs), t96h): 0.0468
- Drug response score, conc. 4 ([3]; conc. 4: Pembr 160 μg/ml (CTCs + CD45+ cells), Docetax 10 μg/ml, Gemcit 40 μg/ml, Topo 100 μg/ml, Etop 100 μg/ml, Eribul 40 μg/ml (CTCs), t96h): −0.0364
- effectiveness on Circulating Tumour Cells under laboratory conditions ([3]; renal cancer CTCs): Sensitive S+
- Drug sensitivity as calculated by the assay (interpretation of Drug Response Scores) ([3]; renal cancer CTCs, Table 23): Sensitive (S+)
- Drug response score, conc. 1 [2]: 0.6167
- Drug response score, conc. 2 [2]: 0.4053
- Drug response score, conc. 3 [2]: 0.9748
- Drug response score, conc. 4 [2]: 0.7712
- effectiveness on Circulating Tumour Cells under laboratory conditions [2]: Sensitive S+
- Drug sensitivity as calculated by the assay (interpretation of Drug Response Scores) [2]: Sensitive (S+)
